Results published in patent publication US20060148898A1 (priority 2003, published 2006).
“Also recorded” adds a separate entry of the source. Like-named read-outs stand apart in the source and are kept apart here.

What was measured:
[1] = system: male rats of the Wistar-100 line; conditions: rat, in vivo
[2] = system: male rats of the Wistar-100 line; conditions: rat, in vivo; remark: listed apart in the source
[3] = system: male rats of the Wistar-100 line; conditions: rat, in vivo; remark: listed apart in the source
adult volunteers = conditions: human, in vivo

With `O=S(=O)([O-])CC(S)CS.[Na+]` (stereo not shown) [Unithiol, 2,3-Dimercaptopropane-sulfonate Na] the “biochemical parameters of toxic action of ethanol on liver tissue (lipid peroxides, triglycerides, ALT, AST)” value [1] was “oral administration of Unithiol yields essentially better values”, the “concentration of end products of lipid peroxidation (TBA-positive compounds) in blood plasma” value [2] was “reliably differing from an analogous group without use of Unithiol toward; lowering” and the “content of the main endogenous antioxidants (vitamins E, A, SH-groups)” value ([2]; po) was “preserved on the level close to the values in the control group”. For the same compound, the “Alanine aminotransferase (ALT) activity in liver homogenates” value [3] was “twice lower”, the “activity of enzymes characterizing damage of hepatocyte membranes (ALT, AST)” value [3] was “reliably lower than in the control group” and the “concentration of end products of lipid peroxidation (TBA-positive compounds) in blood plasma” value [3] was “reliably differing from an analogous group without use of Unithiol toward; lowering”. The “mean content of vitamin E and A in blood plasma” value [3] was “on the level of values in the control group”, the “content of the main endogenous antioxidants (vitamins E, A, SH-groups)” value ([3]; po) was “preserved on the level close to the values in the control group” and the “biochemical values (MDA, vitamins E and A, SH-groups, ALT, AST, triglycerides)” value (adult volunteers) was “did not lead to worsening of the biochemical values; also recorded: restoration of the initial (basic) level of the biochemical values”. For the same compound, the “time after intake at which the subjective perception of withdrawal is removed” value (adult volunteers) was 8 to 10 min.
